Like-named read-outs stand apart in the source and are kept apart here. Values belong to the compound of their own block, whether it stands above or below them.
Experiments:
[1] = Inertness of antibody-complex conjugates challenged with excess DTPA; assay type: physicochemical; details: 1000 fold molar excess of DTPA, pH 7.4, one hour
Method: The purified antibody-complexes were added to HEPES buffer (N-2-hydroxyethylpiperazine-N'-2-ethanesulfonic acid) at pH 7.4 and treated with an appropriate amount of 0.1M DTPA solution (pH 7.4) to ensure a 1000 fold molar excess of DTPA over complex attached to antibody. After one hour an aliquot was removed and the antibody-complex conjugates were separated from low molecular weight substances using gel-filtration.

[2] = Lability of yttrium complexes on addition of excess metal; assay type: physicochemical; details: Y
Method: (§1) A disposable 10 ml plastic (Biorad) column was filled with 1 to 2 ml of water-swelled Sephadex™ C-25 cation exchange resin. The water was pressure eluted to the top of the resin. Fifteen μl of the complex (or more if counts were low) were added to the top of the resin. This was followed by 2 ml of 4:1 (V:V) isotonic saline:conc. ammonium hydroxide solution as an eluent which was allowed to drip into a counting tube. This was also pressure eluted to the top of the resin. An additional 2 ml of the eluent were added and the column pressure eluted to remove all liquid. The dried resin was then placed in a third counting tube and the three tubes counted on a NaI well counter using a Canberra multichannel analyzer linked to a computer. The percent complex was determined by dividing the number of counts in the two elutions by the total counts in the elutions plus the column, all times 100. By this method, uncomplexed yttrium was retained on the column.
The 1:1 complex of yttrium with 1-(p-aminobenzyl)diethylenetriaminepentaacetic acid (ABDTPA), a well known bifunctional chelant used in the literature, and with the ligand of Example 2 (Now Ex. XVI) and Example 12 (now Ex. XVII) were prepared using the techniques described earlier. Several 100 microliter aliquots were then withdrawn into separate centrifuge tubes. Excess metal was added such that the total volume change is minimized and the time noted. One-half hour after metal addition, the percent complex was determined by the Sephadex™ C-25 method and this was compared to the original amount of complex. The percent complex versus added metal gives an indication as to the lability of the ligand-metal complex. Results are given below and are compared to the EDTA-yttrium complex.

[3] = In vivo screening of bifunctional chelates: biodistribution, percent injected dose in liver; details: rat, i.v. tail vein, 2 hours
[4] = cited from earlier work
[5] = Biodistribution in rabbit; assay type: in vivo; details: Y-90, 10 times molar excess ligand
Method: Muscle was calculated using 46% of body weight.
A rabbit was injected in the same manner as the rats with a formulation having Y-90 with Y at 3×10^-4 M and the ligand of Example 10 at 10 times molar excess.

[6] = Percent complex determination, yttrium complexes (Sephadex C-25 cation exchange); assay type: physicochemical; details: Y
Method: The yttrium and/or samarium complexes of several of the compounds were prepared and percent complexation determined as follows:
Complexes were made by preparing a 0.0003M yttrium solution in water. (YCl3 ·6H2 O, 303.26 g/mole; Y(OAc)3, 12.1% H2 0). Radioactive YCl3 (Oakridge National Laboratories) was added to give the desired number of counts. Ten μl of ligand solution (at 0.03M) were added to 990 μl of the Y solution, giving a ligand-to-metal ratio of 1:1. (Ten times the amount of ligand solution was used for a 10:1 ligand to metal ratio.) The pH was then adjusted to 7.4 using microliter quantities of hydrochloric acid or sodium hydroxide. The solution was then tested for the amount of complexed yttrium using the cation exchange method given below.
as §1

Biodistribution in rats = details: 2 hours
[7] = tested on: osteosarcoma in the right proximal humerus; test: Treatment of a dog with osteosarcoma; assay type: in vivo; details: Sm-153, 300 times molar excess ligand, I.V. 0.95 mCi/Kg, one week after injection
Method: A dog was presented with an osteosarcoma in the right proximal humerus and walked with significant lameness. A complex was prepared using the ligand of Example 10 with a Sm-153 solution. The concentration of Sm was 3×10^-4 M and the ligand was used with a 300 times molar excess. The specific activity of the Sm-153 was 30 mCi/ml. The dog was given an I.V. injection of this complex containing 0.95 mCi of Sm-153 per Kg body weight of the dog.

[8] = Percent complex determination, samarium complexes (Sephadex C-25 cation exchange); assay type: physicochemical; details: Sm
Method: as §1, with “100.” for “100. By this method, uncomplexed yttrium was retained on the column.”
Samarium complexes were formed as described previously for yttrium complexes except that 0.0003M samarium was prepared by dissolution of Sm2 03 (348.7 g mole) in 0.1M hydrochloric acid. […] Percent complex determination was made in the same manner as for the yttrium complex.

[9] = radionuclide; cited from earlier work
[10] = Metal/Ligand Molar Ratio 10, one-half hour after metal addition
[11] = Metal/Ligand Molar Ratio 100, one-half hour after metal addition
[12] = Metal/Ligand Molar Ratio 250, one-half hour after metal addition
[13] = Metal/Ligand Molar Ratio 500, one-half hour after metal addition
[14] = Ho-166, 300 times molar excess ligand
[15] = Sm-153, 10 times molar excess ligand
[16] = Sm-153, 300 times molar excess ligand

% Complex ([2]; Metal/Ligand Molar Ratio 1): 97%
% Complex [2, 10]: 95%
% Complex [2, 11]: 92%
% Complex [2, 12]: 87%
% Complex [2, 13]: 70%
SMILES: Nc1ccc(CC(CN(CCN(CC(=O)O)CC(=O)O)CC(=O)O)N(CC(=O)O)CC(=O)O)cc1 (centres unmarked) [ABDTPA, 1-(p-aminobenzyl)diethylenetriaminepentaacetic acid]
yttrium lost from antibody-complex conjugate [1]: over 98%

SMILES: O=C(O)CN(CCN(CC(=O)O)CC(=O)O)CC(=O)O [EDTA, ethylenediaminetetraacetic acid]
% Injected Dose in Liver ([3]; Sm, ligand/metal 5:1): 8.4%
% Injected Dose in Liver ([3]; Sm, ligand/metal about 300:1): 4.4%
concentrations of radioactivity in organs ([4]; Sc-46, Y-91, La-140, Sm-153, chelant to metal 5:1): high concentrations of radioactivity were observed in the liver, spleen, kidney, lung and bone
% Complex ([2]; Metal/Ligand Molar Ratio 1): 98%
% Complex [2, 10]: 86%
% Complex [2, 11]: 78%
% Complex [2, 12]: 48%
% Complex [2, 13]: 16%

SMILES: CC(=O)Nc1cc(C(C(=O)O)N(CC(=O)O)CC(=O)O)c(O)c(C(C(=O)O)N(CC(=O)O)CC(=O)O)c1 (centres unmarked) [Example 10, 2,6-BIS{[BIS(CARBOXYMETHYL)AMINO](CARBOXY)METHYL}-4-(ACETAMIDO) PHENOL]
biodistribution, blood (% dose) [5]: 0.68%
biodistribution, bone (% dose) [5]: 59%
biodistribution, liver (% dose) [5]: 1.1%
biodistribution, muscle (% dose) [5]: 1.5%
biodistribution, spleen (% dose) [5]: 0.19%
% Injected Dose in Liver ([3]; Ho, (300)): 0.26%
% Injected Dose in Liver ([3]; Sm, (300)): 0.12%
% Injected Dose in Liver ([3]; Sm, ligand/metal 10:1): 1.3%
% Injected Dose in Liver ([3]; Y, ligand/metal 10:1): 0.39%
% Complex ([6]; ligand/metal 10:1): 98%
biodistribution, blood (% dose) (Biodistribution in rats; [14]): 0.09%
biodistribution, bone (% dose) (Biodistribution in rats; [14]): 52.9%
biodistribution, liver (% dose) (Biodistribution in rats; [14]): 0.26%
biodistribution, muscle (% dose) (Biodistribution in rats; [14]): 1.1%
biodistribution, spleen (% dose) (Biodistribution in rats; [14]): 0.007%
biodistribution, blood (% dose) (Biodistribution in rats; [15]): 0.18%
biodistribution, bone (% dose) (Biodistribution in rats; [15]): 48.5%
biodistribution, liver (% dose) (Biodistribution in rats; [15]): 1.3%
biodistribution, muscle (% dose) (Biodistribution in rats; [15]): 0.73%
biodistribution, spleen (% dose) (Biodistribution in rats; [15]): 0.01%
biodistribution, blood (% dose) (Biodistribution in rats; [16]): 0.05%
biodistribution, bone (% dose) (Biodistribution in rats; [16]): 52.7%
biodistribution, liver (% dose) (Biodistribution in rats; [16]): 0.12%
biodistribution, muscle (% dose) (Biodistribution in rats; [16]): 0.23%
biodistribution, spleen (% dose) (Biodistribution in rats; [16]): 0.005%
dog's gait [7]: noticeably improved

% Complex ([6]; ligand/metal 10:1): 99%
% Complex ([6]; ligand/metal ratio about 1:1): 98%
% Complex ([8]; ligand/metal 10:1): 98%
% Complex ([8]; ligand/metal ratio about 1:1): 98%
% Complex ([2]; Metal/Ligand Molar Ratio 1): 95%
% Complex [2, 10]: 93%
% Complex [2, 11]: 90%
% Complex [2, 12]: 90%
% Complex [2, 13]: 79%
SMILES: Nc1cc(CN(CCN(CC(=O)O)CC(=O)O)CC(=O)O)c(O)c(CN(CCN(CC(=O)O)CC(=O)O)CC(=O)O)c1 [Example 12]
yttrium lost from antibody-complex conjugate [1]: approximately 39%

SMILES: O=C(O)CN(CC(=O)O)CC(=O)O [NTA, nitrilotri-acetic acid, reference compound]
% Injected Dose in Liver ([3]; Sm, ligand/metal about 300:1): 8.6%
concentrations of radioactivity in organs ([4]; mouse, in vivo): high concentrations of radioactivity were observed in the liver, spleen, kidney, lung and bone

SMILES: [89Sr] [Strontium-89]
half-life [9]: 50.4 days
